This passage reports remaining activity results from patent US20190307818A1, “NOVEL ANTIMICROBIAL COMPOSITIONS AND METHODS OF USE” (priority 2016, published 2019).

The assay addresses T1, RhlR (Pseudomonas aeruginosa, UniProt P54292).
T1 construct: expressed in transfected cells; host or cells: E. coli TOP10 carrying pBAD-A 6xHIS-rhlR and pCS26 prhlA-luxCDABE
As to the kind of experiment: Two plasmid E. coli RhlR reporter (luciferase). The class given is cell-based, P. aeruginosa. As to conditions: read-out: Percent Activity (RhlR reporter). The text has this:
A two plasmid E. coli reporter system was constructed, in which LasR or RhlR was expressed under an arabinose inducible promoter (e.g., LasR or RhlR was cloned into a pBAD-A vector and expressed upon addition of arabinose) in the presence of a LasR-dependent or RhlR-dependent promoter fused to luciferase (e.g., cloned into a pCS26 vector). Upon the addition of arabinose and in the presence of AI, LasR or RhlR were expressed, formed a complex with the cognate AI, underwent dimerization, and activated transcription of the reporter construct. All potential inhibitors were tested at 100 μM. The percent activity was reported relative to wild-type (100%).
A sample experimental protocol for the RhlR reporter (see, e.g., Table 5A2) or for the LasR reporter (see, e.g., Table 5A1).
For the RhlR reporter, strains were re-streaked on LB+appropriate antibiotic before each experiment and grown overnight at 37° C. Three colonies were picked and a 3 mL overnight culture in LB+appropriate antibiotic was started. The culture was grown overnight at 37° C. The overnight culture was back-diluted 1:1000 into fresh LB+appropriate antibiotic in an appropriate volume, depending on the number of plates being screened. Each well in a 384 well plate received about 20 μL of culture. An additional 25 mL of culture was reserved for priming the plate filler. The culture was grown at 37° C. until OD600˜0.5, which took about 4 hrs. A 384-well plate was prepared. Stock concentrations of molecules (e.g., small molecule inhibitors) were 10 mM.
For a 10-point dose response for the RhlR reporter, a 1:3 dilution of molecule:DMSO (333 μL of stock molecule, 667 μL of DMSO using a 1 mL pipetteman) was used for accurate dispensing by the robot dispenser. Upon a prompt by the software, the appropriate concentration of each molecule was added. Each well was normalized with a DMSO standard to bring the total % volume of DMSO up to 1% using the robot. Plates were set aside with dispensed drugs until the cells were ready. Once the cells reached an OD600 of 0.5, an appropriate amount of cell culture was dispensed for screening into an Erlenmeyer flask. (Extra culture was saved for a negative control.) Arabinose was added to 0.1% final concentration (1:1000 dilution from stock solution), and AI was added to 10 μM (ED75) from a 10 mM stock. The components of the flask were mixed together by swirling. As mentioned previously, other concentrations of AIs may be suitable, e.g., the concentrations may be in the range of 2 uM to 100 uM, from 10 uM to 100 uM or from 2 uM to 10 uM. In some embodiments, 2 nM of 3-O—C12-HSL (for LasR) and 10 uM of C4-HSL (for RhlR) were used.
A clean plate was filled with water, 70% ethanol, LB, and primed with cultured cells to ensure that initial dispensing led to the appropriate volume of cells being added to the wells. 20 μL of this solution was dispensed into appropriate wells in a 384-well plate that contained small molecule antagonists. 20 μL of this solution was dispensed into wells intended for a positive control that contain only DMSO. To the culture that was saved for negative control, arabinose was added to 0.1%. An equal volume of DMSO was added to the culture, relative to the amount of AI added to the other culture. 20 μL of culture was dispensed into wells intended for a negative control that contained only DMSO and no small molecule QS inhibitors. Plates were incubated at 30° C. in the plate shaker. Plates were read using a 384 LUM/OD 600 setting on the plate reader after 4 hours of induction.
For data analysis, the average and standard deviation for each of the control groups were determined. In a screen, for each data point, the number of standard deviations from the mean was determined to determine if the inhibitor was a “hit”. In a dose response curve, for each data point, the percent inhibition was determined: 1−(X/M), where X=single data point and M=is the mean of the AI only control group. […]

Molecules are shown by their SMILES.

T1 sequence (P54292 whole entry): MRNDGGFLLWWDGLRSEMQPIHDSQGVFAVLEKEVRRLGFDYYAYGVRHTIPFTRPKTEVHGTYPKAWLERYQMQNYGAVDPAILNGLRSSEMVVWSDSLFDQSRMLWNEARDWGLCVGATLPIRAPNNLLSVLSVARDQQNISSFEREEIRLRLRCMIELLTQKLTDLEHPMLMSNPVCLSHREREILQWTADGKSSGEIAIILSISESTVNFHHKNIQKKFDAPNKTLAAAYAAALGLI

For the compound `O=c1cc(-c2ccccc2)oc2cc(O)c(O)c(O)c12` [Molecule 46, Baicalein], the remaining activity at 100 µM came to 57.4%.
